Usually MIC stands for the lowest concentration that inhibits growth of the organism.

Values after ≈ are worked out from the molar mass of the structure shown.

MIC data for two compounds are collected here from ChEMBL document CHEMBL1687864, “Carijodienone from the octocoral Carijoa multiflora. A spiropregnane-based steroid” (2011).

What all share (format): functional
The test system of one test is Bacillus cereus. The test can be described thus: Antibacterial activity against Bacillus cereus by broth macrodilution method.
The subject of another test is Klebsiella pneumoniae. The test can be described thus: Antibacterial activity against Klebsiella pneumoniae by broth macrodilution method.
In a further test the test system is Staphylococcus aureus. The test can be described thus: Antibacterial activity against Staphylococcus aureus by broth macrodilution method.
In the next test the test system is Salmonella. Put plainly: Antibacterial activity against Salmonella by broth macrodilution method.
For the next test, the system named is Escherichia coli. The test can be described thus: Antibacterial activity against Escherichia coli by broth macrodilution method.
A further test concerns Enterococcus faecalis. Put plainly: Antibacterial activity against Enterococcus faecalis by broth macrodilution method.
In a further test the test system is Proteus mirabilis. Put plainly: Antibacterial activity against Proteus mirabilis by broth macrodilution method.

Turning to `C=C[C@H]1CC[C@H]2[C@@H]3CC[C@@]4(C=CC(=O)C=C4C)[C@H]3CC[C@]12C` [CARIJODIENONE], the results for the MIC with Bacillus cereus and with Klebsiella pneumoniae were 6 µg/mL (≈ 20.2 µM) and 5 µg/mL (≈ 16.9 µM), respectively.

Take `C=C[C@H]1CC[C@H]2[C@@H]3CCC4=CC(=O)C=C[C@]4(C)[C@H]3CC[C@]12C`: the MIC against Staphylococcus aureus, with Salmonella, in the test on Escherichia coli, in the test with Bacillus cereus, against Enterococcus faecalis and in the test on Klebsiella pneumoniae was above 40 µg/mL throughout. The compound further yielded an MIC against Proteus mirabilis above 40 µg/mL.
